Source: ChEMBL document CHEMBL1201862, “PubChem BioAssay data set” (2004)
Active and inactive are the calls of the source.

Assays:
[1] = target: Intestinal-type alkaline phosphatase (Mus musculus, UniProt P24822); assay: PubChem AID 488875; format: functional
[2] = target: T1, Intestinal-type alkaline phosphatase (Homo sapiens, UniProt P09923); assay: human intestinal alkaline phosphatase activators, dose response, biochemical, luminescence, uHTS hits (AID 463120); format: functional
[3] = target: T1, Intestinal-type alkaline phosphatase; assay: human IAP activators, dose response, biochemical, luminescent, uHTS hits, set 2 (AID 488817); format: functional;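 also: potency of activators that raise enzyme activity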
[4] = target: T2, Alkaline phosphatase, tissue-nonspecific isozyme (Homo sapiens, UniProt P05186); assay: TNAP enzyme activators, dose response, selectivity assay for human IAP activator project, biochemical, TNAP isozyme, human IAP uHTS hits (AID 488886); format: functional;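 also: potency of compounds raising TNAP activity as a selectivity check on IAP activators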
T2 sequence (P05186 whole entry): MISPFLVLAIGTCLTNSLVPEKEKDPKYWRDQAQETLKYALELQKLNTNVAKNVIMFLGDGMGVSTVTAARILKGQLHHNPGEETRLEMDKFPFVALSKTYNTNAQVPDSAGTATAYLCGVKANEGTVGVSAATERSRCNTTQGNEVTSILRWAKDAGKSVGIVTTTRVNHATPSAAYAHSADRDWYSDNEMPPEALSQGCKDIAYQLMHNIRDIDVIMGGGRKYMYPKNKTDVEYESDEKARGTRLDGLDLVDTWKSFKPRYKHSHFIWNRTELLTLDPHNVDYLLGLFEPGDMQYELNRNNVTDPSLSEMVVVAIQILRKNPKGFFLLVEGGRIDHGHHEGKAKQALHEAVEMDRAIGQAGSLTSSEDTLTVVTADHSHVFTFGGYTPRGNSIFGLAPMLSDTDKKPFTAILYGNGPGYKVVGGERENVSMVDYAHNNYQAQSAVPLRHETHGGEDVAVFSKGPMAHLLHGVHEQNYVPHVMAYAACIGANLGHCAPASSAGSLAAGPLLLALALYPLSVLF

HEK293 [5] = assay: cells; settings: Homo sapiens
HEK293 [6] = assay: cells; settings: Homo sapiens; remark: listed apart in the source
[7] = target: T3, Voltage-gated N-type calcium channel alpha-1B subunit/Amyloid beta A4 precursor protein-binding family A member 1 (Homo sapiens, UniProt Q00975+Q02410); format: protein assay
T3 sequence (Q00975 whole entry): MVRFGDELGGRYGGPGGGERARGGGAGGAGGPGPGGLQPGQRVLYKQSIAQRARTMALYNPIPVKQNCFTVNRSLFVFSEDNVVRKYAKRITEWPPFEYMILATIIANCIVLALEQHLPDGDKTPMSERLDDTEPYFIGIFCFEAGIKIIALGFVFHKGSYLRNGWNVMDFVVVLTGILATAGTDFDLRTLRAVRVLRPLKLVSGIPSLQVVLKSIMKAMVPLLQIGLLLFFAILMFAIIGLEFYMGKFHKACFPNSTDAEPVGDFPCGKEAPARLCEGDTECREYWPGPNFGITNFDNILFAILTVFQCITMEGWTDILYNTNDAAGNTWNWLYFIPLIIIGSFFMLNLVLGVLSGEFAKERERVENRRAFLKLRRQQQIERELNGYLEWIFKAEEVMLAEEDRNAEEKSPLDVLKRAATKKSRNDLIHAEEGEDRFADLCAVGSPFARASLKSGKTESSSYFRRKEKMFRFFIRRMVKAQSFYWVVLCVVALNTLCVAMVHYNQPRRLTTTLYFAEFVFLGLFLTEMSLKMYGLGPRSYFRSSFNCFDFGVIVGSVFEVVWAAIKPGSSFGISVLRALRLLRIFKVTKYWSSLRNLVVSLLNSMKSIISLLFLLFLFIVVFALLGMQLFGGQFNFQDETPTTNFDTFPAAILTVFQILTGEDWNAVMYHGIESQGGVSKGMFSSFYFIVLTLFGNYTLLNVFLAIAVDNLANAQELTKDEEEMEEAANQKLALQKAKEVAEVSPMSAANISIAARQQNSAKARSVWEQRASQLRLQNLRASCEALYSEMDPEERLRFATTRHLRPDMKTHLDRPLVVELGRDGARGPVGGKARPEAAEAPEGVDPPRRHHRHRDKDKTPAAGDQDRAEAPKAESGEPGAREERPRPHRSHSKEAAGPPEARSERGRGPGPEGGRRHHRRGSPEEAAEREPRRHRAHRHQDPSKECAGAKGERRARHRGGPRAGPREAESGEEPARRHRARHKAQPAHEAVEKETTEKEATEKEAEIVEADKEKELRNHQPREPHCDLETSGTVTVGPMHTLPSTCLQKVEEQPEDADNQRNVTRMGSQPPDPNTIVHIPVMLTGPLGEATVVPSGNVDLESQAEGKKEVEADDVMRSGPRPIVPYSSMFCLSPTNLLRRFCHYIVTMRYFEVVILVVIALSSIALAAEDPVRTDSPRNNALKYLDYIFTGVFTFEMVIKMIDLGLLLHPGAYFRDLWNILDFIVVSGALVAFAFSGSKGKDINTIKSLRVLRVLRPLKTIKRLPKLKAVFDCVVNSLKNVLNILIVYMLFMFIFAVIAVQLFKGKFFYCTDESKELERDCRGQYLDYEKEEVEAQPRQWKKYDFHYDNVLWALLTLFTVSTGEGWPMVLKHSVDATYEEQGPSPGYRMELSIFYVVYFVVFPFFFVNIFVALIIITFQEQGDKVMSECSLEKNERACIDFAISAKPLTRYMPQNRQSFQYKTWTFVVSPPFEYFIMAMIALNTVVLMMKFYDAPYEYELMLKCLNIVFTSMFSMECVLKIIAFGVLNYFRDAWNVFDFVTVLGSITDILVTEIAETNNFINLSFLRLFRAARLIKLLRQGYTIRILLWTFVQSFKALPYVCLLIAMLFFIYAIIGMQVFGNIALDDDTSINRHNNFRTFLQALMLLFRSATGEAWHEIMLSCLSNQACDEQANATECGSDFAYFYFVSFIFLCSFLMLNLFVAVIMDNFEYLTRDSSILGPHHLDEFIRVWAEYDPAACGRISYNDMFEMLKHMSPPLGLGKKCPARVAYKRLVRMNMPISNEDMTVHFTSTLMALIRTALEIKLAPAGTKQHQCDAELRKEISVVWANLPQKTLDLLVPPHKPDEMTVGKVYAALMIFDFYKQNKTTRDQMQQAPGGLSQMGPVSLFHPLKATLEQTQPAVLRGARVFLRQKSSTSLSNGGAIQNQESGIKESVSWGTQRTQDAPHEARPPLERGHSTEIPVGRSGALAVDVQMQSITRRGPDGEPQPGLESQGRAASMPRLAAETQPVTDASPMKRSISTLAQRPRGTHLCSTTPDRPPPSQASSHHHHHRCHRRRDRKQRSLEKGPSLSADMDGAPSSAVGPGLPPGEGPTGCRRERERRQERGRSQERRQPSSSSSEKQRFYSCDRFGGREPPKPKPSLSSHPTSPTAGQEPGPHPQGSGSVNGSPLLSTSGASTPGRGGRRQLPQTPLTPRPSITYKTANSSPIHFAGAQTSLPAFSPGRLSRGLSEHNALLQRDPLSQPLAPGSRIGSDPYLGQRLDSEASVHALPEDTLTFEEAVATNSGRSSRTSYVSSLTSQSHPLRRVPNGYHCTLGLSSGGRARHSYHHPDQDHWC
T3 sequence (Q02410 whole entry): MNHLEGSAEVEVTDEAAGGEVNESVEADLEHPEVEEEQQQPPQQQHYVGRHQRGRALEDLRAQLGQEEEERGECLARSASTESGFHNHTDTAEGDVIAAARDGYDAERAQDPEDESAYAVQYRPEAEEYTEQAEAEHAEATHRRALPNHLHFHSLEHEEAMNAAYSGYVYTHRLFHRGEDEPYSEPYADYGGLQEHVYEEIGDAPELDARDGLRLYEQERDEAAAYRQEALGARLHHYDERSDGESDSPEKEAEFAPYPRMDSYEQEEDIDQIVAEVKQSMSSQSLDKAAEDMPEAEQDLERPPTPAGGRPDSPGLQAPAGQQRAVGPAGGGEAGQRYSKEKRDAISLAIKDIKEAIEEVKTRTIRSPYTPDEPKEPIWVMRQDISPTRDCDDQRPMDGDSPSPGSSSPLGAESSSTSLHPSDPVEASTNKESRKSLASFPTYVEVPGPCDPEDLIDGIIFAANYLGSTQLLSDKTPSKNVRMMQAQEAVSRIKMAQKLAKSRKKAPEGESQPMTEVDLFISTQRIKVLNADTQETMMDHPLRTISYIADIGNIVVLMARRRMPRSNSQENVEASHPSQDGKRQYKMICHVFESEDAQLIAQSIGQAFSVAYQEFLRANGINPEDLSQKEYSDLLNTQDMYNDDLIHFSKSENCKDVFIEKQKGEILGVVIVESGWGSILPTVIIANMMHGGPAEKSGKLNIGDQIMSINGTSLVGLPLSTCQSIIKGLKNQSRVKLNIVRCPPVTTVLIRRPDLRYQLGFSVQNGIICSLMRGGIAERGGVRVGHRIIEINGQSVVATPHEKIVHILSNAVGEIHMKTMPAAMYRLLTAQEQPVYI

[8] = target: T3, Voltage-gated N-type calcium channel alpha-1B subunit/Amyloid beta A4 precursor protein-binding family A member 1; format: protein assay; remark: listed apart in the source
[9] = target: T4, Apoptotic protease-activating factor 1 (Homo sapiens, UniProt O14727); assay: activation of Apaf-1 mediated apoptosis – fluorescent, uHTS hits, dose response (AID 588554); format: functional
T4 sequence (O14727 whole entry): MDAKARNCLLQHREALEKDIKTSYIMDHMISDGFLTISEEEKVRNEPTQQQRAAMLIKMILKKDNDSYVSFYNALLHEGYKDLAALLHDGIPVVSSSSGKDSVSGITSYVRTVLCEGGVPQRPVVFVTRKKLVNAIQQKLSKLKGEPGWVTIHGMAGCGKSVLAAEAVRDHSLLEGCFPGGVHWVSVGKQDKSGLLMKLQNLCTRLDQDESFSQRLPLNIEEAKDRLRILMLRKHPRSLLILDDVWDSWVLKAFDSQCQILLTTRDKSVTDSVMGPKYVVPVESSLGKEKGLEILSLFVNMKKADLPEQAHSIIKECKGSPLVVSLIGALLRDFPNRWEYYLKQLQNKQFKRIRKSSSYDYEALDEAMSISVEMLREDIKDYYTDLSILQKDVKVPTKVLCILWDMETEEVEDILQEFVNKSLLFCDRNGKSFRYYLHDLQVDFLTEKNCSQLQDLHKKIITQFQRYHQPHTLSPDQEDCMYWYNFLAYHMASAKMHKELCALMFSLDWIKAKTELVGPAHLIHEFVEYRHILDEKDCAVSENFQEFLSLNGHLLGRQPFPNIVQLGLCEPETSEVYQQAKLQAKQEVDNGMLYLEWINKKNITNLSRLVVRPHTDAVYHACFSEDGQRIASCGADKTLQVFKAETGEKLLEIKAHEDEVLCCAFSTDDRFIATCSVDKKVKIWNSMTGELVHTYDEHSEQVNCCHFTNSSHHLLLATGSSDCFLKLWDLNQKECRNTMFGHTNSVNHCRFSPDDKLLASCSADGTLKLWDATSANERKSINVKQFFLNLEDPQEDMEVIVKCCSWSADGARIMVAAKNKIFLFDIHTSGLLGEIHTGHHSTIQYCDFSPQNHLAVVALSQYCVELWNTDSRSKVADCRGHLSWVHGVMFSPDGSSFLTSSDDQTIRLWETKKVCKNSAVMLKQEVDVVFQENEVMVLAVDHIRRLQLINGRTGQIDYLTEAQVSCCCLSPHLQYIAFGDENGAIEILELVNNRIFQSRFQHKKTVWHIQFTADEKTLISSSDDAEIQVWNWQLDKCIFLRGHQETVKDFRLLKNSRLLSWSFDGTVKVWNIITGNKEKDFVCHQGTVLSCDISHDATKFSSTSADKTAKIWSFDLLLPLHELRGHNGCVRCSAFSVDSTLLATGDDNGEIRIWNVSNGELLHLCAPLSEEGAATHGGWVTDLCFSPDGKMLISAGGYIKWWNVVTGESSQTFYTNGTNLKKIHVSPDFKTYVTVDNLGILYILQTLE

Trypsin = Trypsin (Sus scrofa, UniProt P00761); assay: porcine trypsin inhibitors, dose response, selectivity assay for Rce1 protease inhibitor project, biochemical, quenched peptide fluorescence, cherry-pick (AID 488789)
Chain of Trypsin (P00761 whole entry): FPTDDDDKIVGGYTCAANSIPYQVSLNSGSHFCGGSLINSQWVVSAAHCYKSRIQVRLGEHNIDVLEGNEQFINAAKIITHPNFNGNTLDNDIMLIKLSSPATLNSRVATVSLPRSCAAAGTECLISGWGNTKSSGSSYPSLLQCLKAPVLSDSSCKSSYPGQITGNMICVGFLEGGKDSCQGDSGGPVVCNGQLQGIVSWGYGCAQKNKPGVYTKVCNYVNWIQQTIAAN

CAAX prenyl protease 1 = CAAX prenyl protease 1 (Saccharomyces cerevisiae S288c, UniProt P47154); assay: Ste24 protease inhibitors, dose response, biochemical, S. cerevisiae, plate reader, cherry-pick (AID 488815)
Chain of CAAX prenyl protease 1 (P47154 whole entry): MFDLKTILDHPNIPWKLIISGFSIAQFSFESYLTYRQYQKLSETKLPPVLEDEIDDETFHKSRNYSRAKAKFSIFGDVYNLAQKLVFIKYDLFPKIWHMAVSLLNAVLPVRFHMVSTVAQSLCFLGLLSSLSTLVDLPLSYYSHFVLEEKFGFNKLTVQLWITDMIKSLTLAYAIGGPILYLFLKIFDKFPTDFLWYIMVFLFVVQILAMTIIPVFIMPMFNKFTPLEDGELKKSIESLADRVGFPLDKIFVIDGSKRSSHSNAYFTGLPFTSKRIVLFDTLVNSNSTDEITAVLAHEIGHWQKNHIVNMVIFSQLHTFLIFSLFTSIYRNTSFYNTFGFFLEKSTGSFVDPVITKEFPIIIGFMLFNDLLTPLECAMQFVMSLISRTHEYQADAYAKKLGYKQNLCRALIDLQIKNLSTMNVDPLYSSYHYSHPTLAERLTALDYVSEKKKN

CAAX prenyl protease 2 = target: T5, CAAX prenyl protease 2 (Homo sapiens, UniProt Q9Y256); assay: human Rce1 protease inhibitors, dose response, biochemical, yeast membranes, quenched-peptide fluorescence, cherry-pick (AID 588849)
T5 sequence (Q9Y256 whole entry): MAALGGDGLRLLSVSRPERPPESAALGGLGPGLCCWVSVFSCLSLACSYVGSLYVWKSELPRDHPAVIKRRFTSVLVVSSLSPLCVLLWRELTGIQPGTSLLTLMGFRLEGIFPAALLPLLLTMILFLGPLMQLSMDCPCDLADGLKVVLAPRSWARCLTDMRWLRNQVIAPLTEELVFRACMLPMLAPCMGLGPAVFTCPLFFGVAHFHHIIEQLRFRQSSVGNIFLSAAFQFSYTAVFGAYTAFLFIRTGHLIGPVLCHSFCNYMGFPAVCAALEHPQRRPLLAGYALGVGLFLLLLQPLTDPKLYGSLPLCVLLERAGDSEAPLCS

[10] = Luminescence Cell-Based Dose Response Follow up to Identify Inhibitors of Platelet Dense Granule Release. [Related pubchem assays (depositor defined):AID1663, AID1678, AID1889, AID2519]; format: functional
Candida albicans = assay: reversal of fluconazole resistance in C. albicans, dose response, CaCi-2 strain, Alamar Blue, dry powder, set 3 (AID 488907); format: functional, organism-based
cells [11] = format: functional, cell-based
cells [12] = format: functional, cell-based; remark: listed apart in the source
[13] = Luminescence Cell-Based Dose Retest to Confirm Inhibitors of Cancer Stem Cells. [Related pubchem assays (depositor defined):AID2717, AID2721]; format: functional; settings: Homo sapiens
[14] = target: T6, Heat shock factor protein 1 (Mus musculus, UniProt P38532); assay: HSF1 potentiators in luciferase reporter cells, confirmation, cell-based, NIH3T3, luminescence, dose retest (AID 435004); format: functional;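 also: stress induced by proteasome inhibitor MG132 added 30 min after compound; luciferase reporter driven by HSF1 response element in NIH3T3 cells; actives raise luminescence as potentiators of the MG132 stress response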
T6 sequence (P38532 whole entry): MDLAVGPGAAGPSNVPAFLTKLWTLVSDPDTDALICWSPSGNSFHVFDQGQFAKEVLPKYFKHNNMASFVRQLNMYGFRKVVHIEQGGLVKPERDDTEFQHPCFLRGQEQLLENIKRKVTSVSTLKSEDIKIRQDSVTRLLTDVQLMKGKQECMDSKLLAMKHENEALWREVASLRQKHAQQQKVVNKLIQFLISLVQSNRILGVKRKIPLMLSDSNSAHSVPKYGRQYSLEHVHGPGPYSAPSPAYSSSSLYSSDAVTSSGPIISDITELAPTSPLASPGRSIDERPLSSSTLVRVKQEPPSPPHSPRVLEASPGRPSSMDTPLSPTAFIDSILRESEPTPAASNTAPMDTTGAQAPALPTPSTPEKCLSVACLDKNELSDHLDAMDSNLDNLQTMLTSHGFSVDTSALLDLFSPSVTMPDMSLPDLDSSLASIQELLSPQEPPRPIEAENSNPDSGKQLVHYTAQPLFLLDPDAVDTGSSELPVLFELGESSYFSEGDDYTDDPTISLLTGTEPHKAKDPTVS

Hexokinase HKDC1 = target: T7, Hexokinase HKDC1 (Homo sapiens, UniProt Q2TB90); assay: HKDC1 hexokinase inhibitors, dose response, biochemical, W721R variant (AID 504729); format: functional
T7 sequence (Q2TB90 whole entry): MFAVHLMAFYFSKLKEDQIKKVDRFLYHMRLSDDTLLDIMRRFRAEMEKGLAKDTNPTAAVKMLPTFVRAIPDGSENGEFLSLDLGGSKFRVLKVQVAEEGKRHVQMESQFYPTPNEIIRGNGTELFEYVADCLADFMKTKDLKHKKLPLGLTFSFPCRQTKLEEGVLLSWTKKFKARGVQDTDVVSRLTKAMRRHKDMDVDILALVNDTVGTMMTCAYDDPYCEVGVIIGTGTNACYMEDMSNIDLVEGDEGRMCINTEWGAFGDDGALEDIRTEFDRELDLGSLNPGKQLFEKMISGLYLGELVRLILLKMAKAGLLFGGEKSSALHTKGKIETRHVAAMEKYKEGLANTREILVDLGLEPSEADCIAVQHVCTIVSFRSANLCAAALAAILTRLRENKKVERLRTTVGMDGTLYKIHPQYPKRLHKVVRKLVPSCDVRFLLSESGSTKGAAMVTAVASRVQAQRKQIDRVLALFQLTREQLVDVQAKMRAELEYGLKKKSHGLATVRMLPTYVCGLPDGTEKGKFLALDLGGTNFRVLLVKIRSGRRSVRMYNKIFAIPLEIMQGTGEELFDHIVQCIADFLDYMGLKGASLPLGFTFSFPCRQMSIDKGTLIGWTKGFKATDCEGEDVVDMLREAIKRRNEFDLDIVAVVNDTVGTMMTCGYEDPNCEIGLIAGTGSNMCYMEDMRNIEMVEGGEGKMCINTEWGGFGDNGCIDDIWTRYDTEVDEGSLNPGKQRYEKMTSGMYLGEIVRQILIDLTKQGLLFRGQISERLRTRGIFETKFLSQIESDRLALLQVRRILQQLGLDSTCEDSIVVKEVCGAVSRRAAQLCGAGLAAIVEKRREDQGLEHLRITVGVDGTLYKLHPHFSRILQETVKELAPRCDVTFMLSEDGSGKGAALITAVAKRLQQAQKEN

[15] = target: Lysine-specific demethylase 4A (Homo sapiens, UniProt O75164); assay: JMJD2A histone demethylase inhibitors, dose response, selectivity assay for GASC-1 inhibitor project, biochemical, DELFIA europium, cherry-picked samples (AID 488840)
[16] = target: Lysine-specific demethylase 4C (Homo sapiens, UniProt Q9H3R0); assay: GASC-1 (JMJD2C) histone demethylase inhibitors, dose response, biochemical, DELFIA europium, cherry-picked samples (AID 488835); format: functional
INS1 = assay: beta cell apoptosis inhibitors, cytokine rescue, dose response, luminescence, retest (AID 449756); format: functional, cell-based; settings: Rattus norvegicus;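 also: cell death triggered by IL-1 beta plus TNF-alpha plus IFN-gamma mixture; protective hits raise ATP signal compared with cytokine alone wells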

T1 sequence (P09923 whole entry): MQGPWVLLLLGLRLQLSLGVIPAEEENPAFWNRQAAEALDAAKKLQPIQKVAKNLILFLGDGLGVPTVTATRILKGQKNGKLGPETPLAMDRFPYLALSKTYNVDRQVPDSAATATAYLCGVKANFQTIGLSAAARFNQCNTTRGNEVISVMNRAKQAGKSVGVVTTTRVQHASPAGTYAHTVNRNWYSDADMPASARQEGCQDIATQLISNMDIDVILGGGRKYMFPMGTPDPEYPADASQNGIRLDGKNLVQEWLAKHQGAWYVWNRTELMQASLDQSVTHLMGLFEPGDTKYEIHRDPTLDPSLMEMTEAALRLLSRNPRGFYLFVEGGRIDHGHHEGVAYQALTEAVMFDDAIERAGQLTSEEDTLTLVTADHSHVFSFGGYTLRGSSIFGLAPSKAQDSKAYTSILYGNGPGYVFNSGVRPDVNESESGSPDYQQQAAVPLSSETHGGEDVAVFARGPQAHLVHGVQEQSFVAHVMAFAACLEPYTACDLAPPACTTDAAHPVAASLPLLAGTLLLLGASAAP
Chain of Intestinal-type alkaline phosphatase (Mus musculus, UniProt P24822) (P24822 whole entry): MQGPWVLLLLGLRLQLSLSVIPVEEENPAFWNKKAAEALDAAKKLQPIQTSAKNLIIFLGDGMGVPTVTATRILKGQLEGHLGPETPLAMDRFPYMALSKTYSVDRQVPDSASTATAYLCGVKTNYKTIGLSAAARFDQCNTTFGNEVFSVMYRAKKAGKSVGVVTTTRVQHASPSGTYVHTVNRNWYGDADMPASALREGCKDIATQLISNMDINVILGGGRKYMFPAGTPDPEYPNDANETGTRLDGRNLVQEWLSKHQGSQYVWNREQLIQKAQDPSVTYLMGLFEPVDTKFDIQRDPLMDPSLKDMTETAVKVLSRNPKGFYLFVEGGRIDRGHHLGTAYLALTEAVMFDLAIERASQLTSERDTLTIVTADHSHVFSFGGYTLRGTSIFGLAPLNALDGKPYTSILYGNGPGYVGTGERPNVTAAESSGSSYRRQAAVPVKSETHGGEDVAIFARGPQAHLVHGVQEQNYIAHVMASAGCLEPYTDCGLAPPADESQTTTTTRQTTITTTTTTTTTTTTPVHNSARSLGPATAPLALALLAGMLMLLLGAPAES

In the case of `COc1cc(NC(=O)NCC2CCN(Cc3ccccc3Cl)CC2)cc(OC)c1OC`, the EC50 [1] is reported as 33.9 µM (active), the EC50 [2] is reported as 61.3 µM (active) and the EC50 [3] is reported as 46.9 µM (active). The EC50 [4] was 63.1 µM (active).

With `COc1cc2c(cc1OC)-c1cc(OCc3cccnc3)nc(=O)n1CC2` the EC50 (HEK293 [5]) was > 59.6 µM (inactive) and the EC50 (HEK293 [6]) was > 59.6 µM (inactive).

In the case of `Cc1cc(C)c2c(=O)c(/C=C3\NC(=S)NC3=O)coc2c1`, the IC50 [7] is reported as 18.6 µM (active), the IC50 [8] is reported as > 50 µM (inactive) and the EC50 [9] is reported as 7.82 µM (active).

With `COc1ccc2c(c1)cc(C(=O)N[C@@H](CCSC)C(=O)N1CCC(C(=O)O)CC1)n2C` the AC50 (Trypsin) was 27.2 µM (active), the AC50 (CAAX prenyl protease 1) was 8.08 µM (active) and the AC50 (CAAX prenyl protease 2) was 22.2 µM (active).

For `CCCC(=O)Nc1cccc(NC(=O)Cc2ccc(Cl)cc2)c1`, the EC50 [10] was 500 µM (inactive).

In the case of `Cc1ccnc(N2CCN(C(=O)c3ccc(Cl)cc3)CC2)c1`, the AC50 (Candida albicans) is reported as 0.0873 µM (active).

For `Oc1ccc(/C=N/Nc2ncc(Br)cn2)c(O)c1`, the EC50 (cells [11]) was 41.1 µM (active), the EC50 (cells [12]) was > 350 µM (not active) and the AC50 [13] was 4.55 µM (active). For the same compound, the EC50 [14] was 18.6 µM (active), the IC50 (Hexokinase HKDC1) was 1.68 µM (active) and the AC50 [15] was > 60 µM (inactive). The AC50 [16] was 0.829 µM (active) and the AC50 (INS1) was 1.54 µM (active).
